According to patent US8629163B2, “Tetrakis-quaternary ammonium salts and methods for modulating neuronal nicotinic acteylcholine receptors” (University of Kentucky Research Foundation, priority 2007, dated 2014):

Key:
[1] = target: T1, α4β2 neuronal nicotinic acetylcholine receptors (Rattus norvegicus, UniProt P09483+P12390); test: Inhibition of [^3H]nicotine (NIC) binding to rat brain membranes; conditions: % inhibition at 100 nM analog; 3 nM [^3H]NIC; nonspecific 10 μM cytisine; 3-4 independent experiments
T1 construct: The brain tissue was homogenized with a Tekmar Polytron; from tissue; host or cells: rat brain membranes (whole brain without cortex and cerebellum)
T1 sequence (P09483 31-630): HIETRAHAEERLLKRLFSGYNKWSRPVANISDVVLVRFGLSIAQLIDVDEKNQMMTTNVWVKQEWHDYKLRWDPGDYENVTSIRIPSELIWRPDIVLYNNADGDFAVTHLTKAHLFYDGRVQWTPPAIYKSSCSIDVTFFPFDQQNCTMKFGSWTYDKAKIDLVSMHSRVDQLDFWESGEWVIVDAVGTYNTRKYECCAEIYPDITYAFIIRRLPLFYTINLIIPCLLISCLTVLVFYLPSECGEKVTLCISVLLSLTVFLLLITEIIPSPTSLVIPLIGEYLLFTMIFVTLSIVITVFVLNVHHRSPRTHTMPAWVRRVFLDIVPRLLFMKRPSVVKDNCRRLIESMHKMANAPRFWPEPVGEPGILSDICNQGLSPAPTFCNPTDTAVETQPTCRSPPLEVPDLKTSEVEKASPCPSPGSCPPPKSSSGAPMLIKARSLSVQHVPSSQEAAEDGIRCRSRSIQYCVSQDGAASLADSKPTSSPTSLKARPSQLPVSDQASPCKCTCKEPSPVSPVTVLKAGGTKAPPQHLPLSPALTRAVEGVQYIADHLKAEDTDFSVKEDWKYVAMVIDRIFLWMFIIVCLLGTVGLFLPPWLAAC
T1 sequence (P12390 25-500): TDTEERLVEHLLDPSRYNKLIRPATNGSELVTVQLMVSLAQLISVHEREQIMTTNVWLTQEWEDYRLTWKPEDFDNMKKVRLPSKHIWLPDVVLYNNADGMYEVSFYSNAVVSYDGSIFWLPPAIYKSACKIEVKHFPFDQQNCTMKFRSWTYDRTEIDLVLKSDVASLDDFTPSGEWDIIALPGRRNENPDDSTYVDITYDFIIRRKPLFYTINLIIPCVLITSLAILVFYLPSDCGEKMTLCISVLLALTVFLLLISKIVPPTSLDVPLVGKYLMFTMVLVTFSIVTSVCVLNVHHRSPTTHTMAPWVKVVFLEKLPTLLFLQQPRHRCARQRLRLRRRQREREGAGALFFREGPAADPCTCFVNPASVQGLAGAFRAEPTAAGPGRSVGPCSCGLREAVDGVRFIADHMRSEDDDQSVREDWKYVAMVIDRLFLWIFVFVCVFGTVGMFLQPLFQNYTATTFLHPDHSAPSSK
Description: (§1) Rat brain was dissected into the whole brain tissue without cortex and cerebellum and was frozen in liquid nitrogen and stored at −70° C. until use. The brain tissue was homogenized with a Tekmar Polytron (setting 40) in 20 volumes of ice-cold hypotonic buffer (2 mM HEPES, 14.4 mM NaCl, 0.15 mM KCl, 0.2 mM CaCl2 and […], pH=7.5). The homogenate was centrifuged at 25,000×g for 17 minutes at 4° C. The pellet was resuspended in 20 volumes of the same buffer, and incubated for 10 min at 37° C. The resuspension was cooled to 4° C. and then centrifuged at the above parameters. The pellet was resuspended by sonicaton and centrifuged using the same conditions. The final pellet was stored at −20° C. under 10 ml of the incubation buffer and was suspended just before incubation with radioligand.
(§2) The binding of [^3H]NIC and [^3H]MLA to probe α4β2 and α7-type neuronal nicotinic acetylcholine receptors, respectively, was determined using [^3H]NIC (67 Ci/mmol) and [^3H]MLA (60 Ci/mmol), purchased from Perkin Elmer Life Sciences, Boston, Mass., U.S.A. and American Radiolabel Chemicals, Inc., St. Louis, Mo., U.S.A. Binding was performed in duplicate, in a final volume of 250 μl of the incubation medium, containing 20 mM HEPES, 144 mM NaCl, 1.5 mM KCl, 2 mM CaCl2, and 1 mM MgSO4, pH=7.5. Reaction was initiated by the addition of 100 μL of membrane suspension to the samples containing a desired concentration of test compounds and 3 nM [^3H]NIC or 3 nM [^3H]MLA (final concentrations) and incubated for 60 min at room temperature. Total binding was measured in the absence of unlabelled ligand and nonspecific binding was determined in the presence of 10 μM cytisine, for [^3H]NIC binding, and 10 μM nicotine for [^3H]MLA. The binding reaction was terminated by dilution of samples with 3 mL of ice-cold incubation buffer followed by immediate filtration through Unifilter-96 GFB-filter plates presoaked in 0.5% polyethylenimine using a Filtermate Harvester (Perkin Elmer, Shelton, Conn., U.S.A.). Filters were rinsed five times with 350 μL of ice-cold buffer, and then filter plates were dried at 48° C. for 60 min, bottom sealed and each well filled with 40 μL of Packard Microscint-20 cocktail. After 60 min of gentle shaking, the filter plates were top sealed and radioactivity measured using a Packard TopCount NXT scintillation counter. CPMs were processed through a Packard Windows NT operating system. Protein was measured using the Bradford dye-binding procedure with bovine serum albumin as the standard.
(§3) The ability of a probe concentration of 100 nM of the tetrakis-quaternary ammonium salts to inhibit specific binding was evaluated.
(§4) ^aData are % inhibition at 100 nM concentration of analog for 3-4 independent experiments. Specific binding in the [^3H]NIC binding assay is calculated as the difference between the total binding of 3 nM [^3H]NIC and nonspecific binding in the presence of 10 μM cytisine. Specific binding for the [^3H]MLA binding assay is calculated as the difference between the total binding of 3 nM [^3H]MLA to the receptors alone and its nonspecific binding in the presence of 10 μM nicotine. Analog-induced inhibition of nicotine-evoked [^3H]DA release is calculated as a percent of that in the absence of analog.

rat striatal slices = test: Nicotine-evoked [^3H]dopamine release (overflow) from superfused rat striatal slices; format: cell-based; conditions: for inhibition at 0.1 µM: % inhibition at 100 nM analog, 10 μM S(-)nicotine, rat striatal slices, read-out: Inhibition of Nicotine-evoked [^3H]DA release
Description: Rat striatal slices (500 μm thickness, 6 mg wet weight) were incubated for 30 minutes in Krebs buffer (118 mM NaCl, 4.7 mM KCl, 1.2 mM MgCl2, 1.0 mM NaH2PO4, 1.3 mM CaCl2, 11.1 mM glucose, 25 mM NaHCO3, 0.11 mM L-ascorbic acid, and 0.004 mM disodium EDTA; pH 7.4, and saturated with 95% O2/5% CO2) in a metabolic shaker at 34° C. Slices were rinsed with 15 mL of fresh buffer and incubated for an additional 30 minutes in fresh buffer containing 0.1 μM [^3H]dopamine (DA; 6 slices/3 mL). Subsequently, slices were rinsed with 15 mL of fresh buffer and each slice transferred to a superfusion chamber. Slices were superfused (0.6 mL/min) for 60 minutes with Krebs buffer containing nomifensine (10 μM) and pargyline (10 μM) and maintained at 34° C., pH 7.4, with continual aeration (95% O2/5% CO2). Two 4-minute samples (2.4 mL each) were collected to determine basal outflow of [^3H]DA. Slices were superfused for 36 min following addition of the analogs to the superfusion buffer after the collection of the second sample and nine 4-minute samples were collected. For initial probe assays, the concentration of analog was 100 nM. For concentration-response studies, the concentration of analog varied from 1 nM to 10 μM, and the effect of each concentration was determined using striatal slices obtained from an individual animal (repeated measures design). Subsequently, S(−)nicotine (10 μM) was added to the buffer and nine additional 4-minute samples were collected. At the end of the experiment, each slice was solubilized and the [^3H] content of the tissue determined.
Radioactivity in the superfusate and tissue samples was determined by liquid scintillation spectroscopy. Fractional release for tritium collected in each sample was divided by the total tritium present in the tissue at the time of sample collection and was expressed as a percentage of total tritium. Basal [^3H]outflow was calculated from the average of the tritium collected in the two […] samples just before addition of the analog. The sum of the increase in collected tritium resulting from either exposure to the test compound or exposure to S(−)nicotine in the absence and presence of the test compound equaled total [^3H]overflow. [^3H]Overflow was calculated by subtracting the [^3H]outflow during an equivalent period of prestimulation from the values in samples collected during and after drug exposure. Inasmuch as the radiolabelled compounds were not separated and identified, the tritium collected in superfusate is referred to as either [^3H]outflow or [^3H]overflow, rather than as [^3H]DA. [^3H]Overflow primarily represents [^3H]DA in the presence of nomifensine and pargyline in the superfusion buffer. […]
Analogs were also evaluated for their ability to inhibit NIC evoked [^3H]DA release. Antagonist activity was evaluated by comparing the NIC-evoked [^3H]overflow in the absence and presence of the analogs (see Table 1). […] Data are expressed as M±SEM. Control represents absence of compound. N=4/analog, *p<0.05
as §4
^bIC50 from full concentration response assay; data from 4-5 independent experiments, each performed in duplicate.

[2] = target: T2, α7-type neuronal nicotinic acetylcholine receptors (Rattus norvegicus, UniProt Q05941); test: Inhibition of [^3H]methyllycaconitine (MLA) binding to rat brain membranes; conditions: % inhibition at 100 nM analog; 3 nM [^3H]MLA; nonspecific 10 μM nicotine; 3-4 independent experiments
T2 construct: The brain tissue was homogenized with a Tekmar Polytron; from tissue; host or cells: rat brain membranes (whole brain without cortex and cerebellum)
T2 sequence (Q05941 23-502): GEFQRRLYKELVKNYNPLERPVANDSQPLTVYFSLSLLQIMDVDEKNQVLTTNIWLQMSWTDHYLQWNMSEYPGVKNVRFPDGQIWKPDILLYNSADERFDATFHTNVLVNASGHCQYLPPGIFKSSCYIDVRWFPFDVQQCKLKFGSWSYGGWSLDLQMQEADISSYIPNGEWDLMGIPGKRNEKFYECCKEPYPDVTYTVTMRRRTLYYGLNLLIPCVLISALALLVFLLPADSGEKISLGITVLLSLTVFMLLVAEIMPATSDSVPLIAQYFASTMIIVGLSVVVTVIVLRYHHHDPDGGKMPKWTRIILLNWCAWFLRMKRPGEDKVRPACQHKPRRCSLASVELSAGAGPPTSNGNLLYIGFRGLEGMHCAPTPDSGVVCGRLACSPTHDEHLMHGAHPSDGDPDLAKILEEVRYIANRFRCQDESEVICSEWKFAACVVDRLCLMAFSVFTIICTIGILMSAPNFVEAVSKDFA
Description: as §1, §2, §3, §4

[3] = target: T2, α7-type neuronal nicotinic acetylcholine receptors; test: as above

In the case of `Cc1cc[n+](CCCCCc2cc(CCCCC[n+]3ccc(C)cc3)c(CCCCC[n+]3ccc(C)cc3)cc2CCCCC[n+]2ccc(C)cc2)cc1.[Br-].[Br-].[Br-].[Br-]`, the “Inhibition of [^3H]Nicotine binding” value [1] is reported as 12 ± 8.3%, the inhibition at 0.1 µM (rat striatal slices) is reported as 46 ± 5% and the “Inhibition of [^3H]MLA binding” value [2] is reported as 8.0 ± 5.3%.
With `[Br-].[Br-].[Br-].[Br-].c1ccc2c[n+](CCCCCc3cc(CCCCC[n+]4ccc5ccccc5c4)c(CCCCC[n+]4ccc5ccccc5c4)cc3CCCCC[n+]3ccc4ccccc4c3)ccc2c1` the “Inhibition of [^3H]Nicotine binding” value [1] was 6.5 ± 6.5%, the inhibition at 0.1 µM (rat striatal slices) was 63 ± 12% and the IC50 (rat striatal slices; Rattus norvegicus, full concentration response assay, 4-5 independent experiments in duplicate, 10 μM nicotine, read-out: IC50, inhibition of nicotine-evoked [^3H]DA release (converted)) was 56 nM. The “Inhibition of [^3H]MLA binding” value [2] was 24 ± 13%.
With `Cc1cc[n+](CCCCCc2cc(CCCCC[n+]3ccc(C)c(C)c3)c(CCCCC[n+]3ccc(C)c(C)c3)cc2CCCCC[n+]2ccc(C)c(C)c2)cc1C.[Br-].[Br-].[Br-].[Br-]` the “Inhibition of [^3H]Nicotine binding” value [1] was 0.5 ± 0.5%, the inhibition at 0.1 µM (rat striatal slices) was 36 ± 11% and the “Inhibition of [^3H]MLA binding” value [2] was 18 ± 10%.
Work on α-bungarotoxin yielded a Ki [3] of 28.6 ± 5.4 nM.
